{"source": "patent US6740680B1", "about": "“Pharmaceutical compositions to tetrac and methods of use thereof” (Becton Pharma, Inc., priority 1999, dated 2004)", "key": {"GH mRNA": {"tested_on": "GH mRNA", "assay": "Northern blot, growth hormone mRNA in pituitary", "assay_type": "in vivo, rat", "protocol": "Seventy-nine male SIVZ rats were purchased from the breeder (Institut für Labortierkunde des Universität Zürich, Zürich, Switzerland). They were rendered hypothyroid by a single injection of [^131I]Na (100 μCi/rat) and before and throughout the experiment 0.02% 2-mercapto-1-methylimidazol (MMI) was added to drinking water. In order to have an euthyroid control group of similar weight and identical age, 10 rats received only MMI in the drinking water and 2 weeks before implanting the minipumps, MMI was withdrawn. Osmotic minipumps (secretion rate 0.25 μl/hour, duration 14 days) were implanted intraperitoneally (i.p.) 2 months after the injection of [^131I]Na. The minipumps were filled with T4 or Tetrac dissolved in 0.05 N NaOH, 2% BSA and 100,000 cpm [^125I]T4 or [^125I]Tetrac as control of their secretion rates. The infusion lasted 13 days. 0, 1.5, 4.5, 13.5 and 40.5 nmol Tetrac/day/100 g or 0.5, 1.5, 4.5 and 13.5 nmol T4/day/100 g bodyweight (BW) (n=4/dose) were infused. An euthyroid control group was included. The animals were weighed every 2 days. Rats were sacrificed by decapitation and blood was collected and stored at […] until use. Tissues (liver, heart, brown adipose tissue, cerebral cortex and pituitary) were removed rapidly, frozen in liquid nitrogen and stored at […] until use.\nTotal RNA extraction and Northern Blot hybridization Total RNA was extracted with the method of Chomczynski and Sacchi (Chomczynski, P. and Sacchi, N. Anal. Biochem. (1987) 162: 156-159). […]\nThe amount of labeled mRNA was quantified by scanning laser densitometry (Phosphorimager, Molecular Dynamics; Sunnyvale, USA). Variations in RNA loading and membrane transfer were corrected by densitometric quantification of a negative photograph of 28S and 18S ribosomal RNA bands from ethidium bromide stained RNA gels. […]"}, "Cynomologus monkeys": {"tested_on": "Cynomologus monkeys", "protocol": "Preparation of Tetrac for injection. Tetrac from Rhône-Poulenc and Henning Laboratory were compared. Tetrac powder was dissolved in sterile 0.1 N NaOH at 2 mg/ml. This solution was made before the beginning of each treatment period and stored at 4° C. in polypropylene tubes, protected from light. Each solution for injection was prepared daily after dilution in the vehicle (0.9% NaCl) containing 5% monkey serum (v/v), and was stored at room temperature and protected from light, according to the storage conditions of the test substance.\nAnimals. One male and one female purpose bred Cynomologus monkeys Macaca fascicularis were supplied by Centre de Recherches Primatologiques, Port Louis, Mauritius. […] The animals were individually housed in stainless steel cages and a metallic tray was placed under each cage in order to collect urine. The animals were fed daily with approximately 200 grams each of U.A.R. 107 C pelleted diet (batch Nos. 61106, 61207 and 70317, U.A.R., Villemoisson-sur-Orge, France), distributed about 2 hours after treatment with Tetrac. No contaminants were known to have been present in the diet, drinking water or bedding material at levels which may be expected to have interfered with or prejudiced the outcome of the study.\nWeeks 1 to 3 and weeks 7 to 9: the animals received the test substance TETRAC provided either by Rhone-Poulenc or by Henning Laboratories over a three-week period.\nWeeks 4 to 6 and weeks 10 to 12: a washout period of three weeks was observed.\nAdministration of Tetrac. Tetrac was administered via intramuscular injection into the thigh muscle once a day, at approximately the same time each day, several days a week over a three week period. The quantity of tetrac administered to each animal was adjusted according to the most recently recorded body weight. A constant dosage-volume of 0.5 ml/kg was used.\nMorbidity and mortality. The animals were checked at least twice a day, for mortality and signs of morbidity.\nBody weight. Body weight was recorded for each animal once before the beginning of the treatment period, on the first day of the treatment period, and at least once a week until the end of the study.\nFood consumption. Food consumption was estimated for each animal by calculating the difference between the quantity given and that remaining the next morning. This was estimated daily during the week before treatment and throughout the study. Food consumption was expressed as a percentage of the quantity given. Whenever fasting was required, the food was removed at the end of the day and the estimation of consumption was made at that time, food being made available for approximately five hours on that day."}}}
{"smiles": "O=C(O)Cc1cc(I)c(Oc2cc(I)c(O)c(I)c2)c(I)c1", "note": "[Tetrac, 3,3′,5,5′-tetraiodothyroacetic acid]", "values": [{"measurement": "GH mRNA, Tetrac/T4 (activity of Tetrac in % of T4)", "setting": "GH mRNA", "value": 71, "unit": "%"}, {"measurement": "GH mRNA, adjusted mean", "setting": "GH mRNA; infused rats, adjusted group mean at the mean Ln (TSH) concentration", "value": 20280, "unit": "arbitrary units"}, {"measurement": "Clinical signs", "setting": "Cynomologus monkeys; 75 μg/kg/day intramuscular, treatment or washout periods", "value": "No clinical signs were observed"}, {"measurement": "Body weight gain (in words)", "setting": "Cynomologus monkeys; Female, two treatment periods compared to washout periods", "value": "slightly higher body weight gain"}, {"measurement": "Food consumption (in words)", "setting": "Cynomologus monkeys; Male", "value": "unaffected"}]}
